Source: patent US20060229358A1, “Pharmaceutical composition containing flavonoids” (Taipei Medical University, priority 2005, published 2006)
Where two headings read alike, the source gives them in different places.

Legend:
[1] = system: T1, PDE4; test: Inhibition of cyclic nucleotide PDE activity (Assay I), PDE4, incl. Lineweaver-Burk analysis; assay type: biochemical, guinea pig; details: for IC50: mean ± S.E.M. (n), read-out: IC50 on phosphodiesterase isozyme 4
T1 construct: IC50 on phosphodiesterase isozyme 4; other: mean ± S.E.M. (n)
Description: Under a protocol approved by the Animal Care and Use Committee of Taipei Medical University, five male guinea pigs (Hartley), weighing 500-600 g, were sacrificed. The lungs (15 g) or hearts (4 g) taken therefrom were chopped into small pieces and homogenized with a glass/teflon homogenizer (Glas-Col, Terre Haute, Ind., USA) in 10 volumes of cold medium (pH 6.5) containing 20 mM Bis-Tris, 2 mM benzamidine, 2 mM EDTA, 50 mM sodium chloride, 0.1 mM phenylmethanesulfonyl fluoride (PMSF), and 1 mM dithiothreitol. At 4° C., the homogenate was centrifuged at 170 g for 15 min, and the supernatant thereof was then re-centrifuged at 40,000 g for 30 min. […] The column was washed with two bed volumes of homogenate buffer to remove unbound material, where the resin beads therein will bind with proteins, such as PDE proteins. Proteins bound to the Q-sepharose beads were eluted with various concentrations (0.23, 0.34, 0.44, 0.69, and 1.00 M) of NaCl dissolved in homogenate buffer (for each concentration, 40-50 mL elution buffer were applied) at a flow rate of 30 ml/h. Fractions (3 ml each) were collected, and ethylene glycol (EG) was added thereto until a final concentration of 30% (v/v). And then the samples were frozen at −70° C.
The activities of PDE1-5 in the homogenate were measured with a two-step procedure according to the method of Thompson and Appleman, using cAMP with [^3H]-cAMP or cGMP with [^3 H]-cGMP as substrates. The PDE enzyme prepared (25 μl) with 10 μl inhibitor or the solvents therefor was incubated for 30 min at 37° C. in a total assay buffer, where the final volume of the assay is amounted to 100 μl. In accordance with the features of the PDE isozymes, the assay buffer contains 50 mM Tris/HCl (pH 7.4), 3 mM MgCl2, 1 mM dithiothreitol, and 0.05% BSA, and optionally contains 1 uM cAMP with 0.2 μCi [^3H]-cAMP as a substrate alone or in the presence of 0.1 unit calmodulin with 10 μM CaCl2, or 5 μM cGMP, and 1 μM cGMP with 0.2 μCi [^3H]-cGMP as another substrate alone or in the presence of 0.1 unit calmodulin with 10 μM CaCl2.
The PDE enzyme and the inhibitors (or their solvent) therefor were mixed and incubated on ice for 30 min previously, and then mixed with the assay buffer. The assay was initiated by transferring the mixture to a water bath at 37° C. Following the other 30 min incubation, the reaction was stopped by transferring the reaction vessel to a bath of boiling water for 3 min. After cooling on ice, 20 μl of the 1 mg/ml of Crotalus atrox venom was added to the reaction mixture, and the mixture was incubated at 37° C. for 10 min. The uncatalyzed substrates, such as cAMP, [^3H]-cAMP, cGMP, or [^3H]-cGMP were removed by the addition of 500 μl of a 1-in-1 Tris-HCl (40 mM) buffer suspension of Dowex resin (1×8-200) with incubation on ice for 30 min, since the bindings of the cyclic nucleotides and the resin. Each tube was then centrifuged for 2 min at 6000 rpm, and 100 μl of the supernatant was removed and counted by a β-counter for calculating the enzyme (PDEs) activity.
The dissociation constant of inhibitor binding (Ki) value was determined from the equation of apparent Km as a function of the inhibitor concentration (insert in A and B, respectively). The slope of the equation is equal to the value of […] (where KM is Michaelis constant). The amounts of the total proteins are calculated based on the analytical method reported by Bradford. In FIGS. 1A and 1B, all enzyme activities are shown as nmole of substrate per mg of proteins per minute (nmole/mg/min) hydrolyzed.
The IC50 values of flavonoids and various reference drugs were calculated using non-linear regression analysis by the software SigmaPlot 7.0 (Sigma Chemical, St. Louis Mo., USA).

[2] = biological target: T2, high affinity rolipram binding sites (HARBS, PDE4H); test: Binding to particulate HARBS of whole brain, displacement of [3H]-rolipram (Assay II); design: species or system guinea pig; details: for IC50: guinea pig whole brain particulates; for bound to HARBS of the whole brain cell particulates: 300 μM, guinea pig, preliminary experimental data
T2 construct: IC50 for displacement of [3H]-rolipram from HARBS; other: 300 μM, guinea pig, preliminary experimental data; other: guinea pig whole brain particulates; over 300 μM not available due
Description: The binding experiments are carried on basis of the methods of Schneider et al. and Zhao et al. with a small modification. Under a protocol approved by the Animal Care and Use Committee of Taipei Medical University, five male guinea pigs (Hartley), weighing 500-600 g, were anesthetized. The whole brains taken therefrom were homogenized with in 10 volumes of cold medium (pH 6.5) containing 20 mM Bis-Tris, 2 mM benzamidine, 2 mM EDTA, 50 mM sodium chloride, 0.1 mM phenylmethanesulfonyl fluoride (PMSF), and 1 mM dithiothreitol. At 4° C., the homogenate was centrifuged at 170 g for 15 min for removing blood vessels and connective tissues, and the supernatant thereof was then re-centrifuged at 40,000 g for 30 min for separating the particulates from the cytosol of cells.
After incubation, the reaction was stopped by transferring the reaction vessel to a bath of crashed ice. Then the reaction mixture was filtered through a punched glass fiber filter (Whatman GF/B) placed in a mini funnel, which was adopted to a 1.5 ml of Eppendorff's tube for collecting the filtrate in the mini centrifuge at 1000 rpm for 10 seconds. By the same way (centrifugation), it is further washed with 0.3 ml reaction buffer each for three times. The Whatman GF/B filter was mixed with 2 ml of cocktail and counted by the β-scintillation counter (Backman, Fullerton, Calif., USA) for counting the radioactivity thereof.

[3] = system: T3, PDE4L (LARBS); test: Binding to peripheral LARBS (PDE4L); details: considered equal to the PDE4 IC50
T3 construct: other: considered equal to the PDE4 IC50
Description: [21]. […] In the brain, there are two binding sites for rolipram, which are high (HARBS) and low affinity rolipram binding sites (LARBS), while in the periphery of bronchi and lung there exist only LARBS. Generally, the anti-inflammatory and the bronchodilatory effects of rolipram are considered as its ability to bind with LARBS [21].

[4] = 2 nM [3H]-rolipram, FIG. 2, read-out: IC50 for displacement of [3H]-rolipram from HARBS
[5] = over 300 μM not available due to solubility, read-out: concentration for having 50% of HARBS bound

## O=c1cc(-c2ccc(O)cc2)oc2cc(O)cc(O)c12 [Apigenin]
[1]
  IC50: > 100 µM

## O=c1cc(-c2ccccc2)oc2cc(O)cc(O)c12 [Chrysin]
[1]
  IC50: > 100 µM

## O=c1c(-c2ccc(O)cc2)coc2cc(O)ccc12 [Daidzein]
[1]
  IC50: > 100 µM

## O=C1CC(c2ccc(O)c(O)c2)Oc2cc(O)cc(O)c21 (stereo not drawn) [Eriodictyol]
[1]
  IC50: > 100 µM

## COc1ccc(C2CC(=O)c3c(O)cc(O)cc3O2)cc1O (stereo not drawn) [Hesperetin]
[1]; Lineweaver-Burk plot, cAMP substrate, FIG. 1A
  mode of inhibition of PDE4 enzyme activity: competitively inhibits
[2]; [4]
  IC50: > 300 µM
[2]
  bound to HARBS of the whole brain cell particulates: 17.5%
[2]; [5]
  IC50: > 300 µM
[3]
  concentration for binding to an half of the LARBS: 28.2 µM

## O=c1cc(-c2ccc(O)c(O)c2)oc2cc(O[C@@H]3O[C@H](CO)[C@@H](O)[C@H](O)[C@H]3O)cc(O)c12 [Luteolin-7-glucoside]
[1]
  IC50: 43 ± 5.3 µM

## O=c1cc(-c2ccc(O)c(O)c2)oc2cc(O)cc(O)c12 [Luteolin]
[1]
  IC50: 19.1 ± 2.4 µM

## COc1cc(O)c2c(=O)c(-c3ccc(O)cc3)coc2c1 [Prunetin]
[2]; [4]
  IC50: > 300 µM
[2]
  bound to HARBS of the whole brain cell particulates: 24.2%
[2]; [5]
  IC50: > 300 µM
[3]
  concentration for binding to an half of the LARBS: 61.9 µM
